US5688821A, “Unsaturated fatty acyl derivatives of 2-aminothiazoleacetic acid and their salts as inhibitors of phospholipase A2 derived from human sources” (American Home Products Corporation, priority 1996, dated 1997)
Structures can show the parent of a compound that is named as a salt. Where two headings read alike, the source gives them in different places.

Columns and labels:
Human Platelet PLA2 = molecular target: T1, Human Platelet PLA2 (Homo sapiens, UniProt P14555); test: Inhibition of PLA2 derived from human platelets (HP), arachidonic acid release from 3H-AA E. coli substrate; type: biochemical; conditions: for inhibition at 10 µM / % Inhibition HP: Drug Concentration 10 μM, Example 8: average of two runs; for inhibition at 50 µM: Drug Concentration 50 μM; for % Inhibition HP: 10 µM
T1 construct: semi-purified human platelet acid extract PLA2; from tissue; host or cells: human platelets (semi-purified acid extract)
T1 sequence (P14555 21-144): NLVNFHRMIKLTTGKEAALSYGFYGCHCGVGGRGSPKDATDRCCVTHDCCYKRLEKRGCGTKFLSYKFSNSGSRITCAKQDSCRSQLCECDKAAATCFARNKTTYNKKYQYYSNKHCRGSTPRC
Protocol: (§1) The compounds of the invention are tested in an in vitro isolated phospholipase A2 assay to determine the ability of the test compounds to inhibit the release of arachidonic acid from an arachidonic acid-containing substrate by the action of phospholipase A enzyme from two human sources.
(§2) 1. INHIBITION OF PLA2 DERIVED FROM HUMAN PLATELETS AND HUMAN SYNOVIAL FLUID
(§3) This assay is carried out as follows:
(§4) Into a 15 mL polypropylene tube are added the following: […]
(§5) *pre-incubate at room temperature 30 min prior to substrate addition.
(§6) ^1. Prepared by adding 2 mL deionized and distilled water to 2 mL ^3 H-arachidonate labeled E. coli (lower count), to which is added 1 mL of ^3 H-arachidonate labeled E. coli (higher count) to yield a total of […] substrate (containing 1000 nmoles phospholipid, PL).
(§7) ^2 Stock 0.1M CaCl2 required for enzyme activity.
(§8) ^3 Stock 0.5M Trisma-Base. Stock 0.5M Trisma-HCl. Adjust pH to 7.5 (optimum for enzyme).
(§9) ^4 Deionized and distilled water.
(§10) ^5 Stock 10 mM prepared in dimethyl sulfoxide. Make 1:2 dilution with dimethyl sulfoxide and add 1 μL to 100 μL assay tube.
^6 Two human PLA2 enzymes are used:
(a) semi-purified human platelet acid extract PLA2 (in 10 mM sodium acetate buffer, pH 4.5). Remove protein precipitate by centrifugation at about 2200 rpm for 10 minutes. […]
(§11) Incubate the […] reaction mixture for 10 minutes at 37° C. in a shaking water bath. The reaction is terminated by the addition of 2 mL tetrahydrofuran, followed by vortexing. NH2 columns ([…]--Analytichem International) are conditioned with 0.5 mL tetrahydrofuran followed by 0.5 mL tetrahydrofuran/water (2 mL:0.1 mL, v/v).
(§12) The sample is loaded onto the columns and slowly dram through them. The hydrolyzed arachidonic acid retained in the columns is eluted therefrom with 1 mL tetrahydrofuran/glacial acetic acid (2%). The arachidonic acid is transferred to scintillation vials and quantitated by β-counting analysis. A "total counts" sample is prepared by pipetting 25 μl, ^3 H-arachidonate E. coli directly into a scintillation vial to which is added 1 mL tetrahydrofuran. 10 mL aquasol (scintillation cocktail) is added to all samples.

Human Synovial PLA2 = molecular target: T2, Human Synovial PLA2 (Homo sapiens, UniProt P14555); test: Inhibition of PLA2 derived from human synovial fluid (HSF), arachidonic acid release from 3H-AA E. coli substrate; type: biochemical; conditions: for inhibition at 10 µM / % Inhibition HSF: Drug Concentration 10 μM, Example 8: average of two runs; for inhibition at 50 µM: Drug Concentration 50 μM; for % Inhibition HSF: 10 µM
T2 construct: Purified human synovial fluid; from tissue; host or cells: human synovial fluid (purified)
T2 sequence (P14555 21-144): T1 sequence (P14555 21-144)
Protocol: as §1, §2, §3, §4, §5, §6, §7, §8, §9, §10
^6 Two human PLA2 enzymes are used: […]
(b) Purified human synovial fluid.
as §11, §12

[1] = system: TPA-induced ear edema in mouse ears; test: TPA-induced dermal inflammation in mouse ears; type: in vivo, mouse (female Swiss Webster); conditions: Topical, 30 min after TPA, measured 4 h after TPA, * p ≤0.05
Protocol: 2. TPA-induced dermal inflammation in mouse ears
Female Swiss Webster mice (Buckshire; 8 weeks old) were divided into groups of six. Tetradecanoylphorbol acetate CrPA) was dissolved in acetone at concentrations of 50 mg/ml and 200 μg/ml, respectively. Each mouse received 4 μg/ear of TPA on the right ear. These suboptimal doses of phlogistics were applied by an automatic pipette in 10 μl volumes to both the inner and outer surfaces of the ear. The left ear (control) received acetone or vehicle. […] Drags were given 30 min. after treatment (+30 min) with TPA. Edema measurements were taken with an Oditest calipers. The thickness of the right and left ears were usually measured in traits of 0.01 mm 4 h after TPA application. Ear edema was calculated by subtracting the thickness of the left ear (vehicle control) from right ear (treated ear).

[2] = system: paw edema induced by the exogenous administration of PLA2; test: Murine paw edema assay (edema induced by exogenous PLA2); type: in vivo, mouse (male CD-1); conditions: for % change paw edema (in words): dose and time not given; for % change paw edema: 30 mg/kg i.p., * p ≤0.05
[3] = test compounds, value in parentheses, Table 1, read-out: (IC50) HP
[4] = test compounds, value in parentheses, Table 1, read-out: (IC50) HSF

Q: With `CCCCCCCC/C=C\CCCCCCCC(=O)Nc1nc(CC(=O)O)cs1` [Example 2, 2-[((Z)-1-Oxo-9-octadecenyl)amino]-4-thizaoleacetic acid, tromethamine (2-amino-2-hydroxymethyl)-1,3-propanediol) salt] as the molecule, how does the inhibition at 10 µM (Human Platelet PLA2) read?
A: Its inhibition at 10 µM is 36%.

Q: And the inhibition at 10 µM (Human Synovial PLA2)?
A: Its inhibition at 10 µM is 25.9%.

Q: Which results are given for `CCCCCCCC/C=C\CCCCCCCC(=O)Nc1nc(CC(=O)O)cs1` [Example 1, 2[((Z)-1-Oxo-9-octadecenyl)amino]-4-thiazoleacetic acid]?
A: inhibition at 50 µM (Human Platelet PLA2): 57.5%; IC50 (Human Platelet PLA2; [3]): 27.9 µM; inhibition at 50 µM (Human Synovial PLA2): 96%; IC50 (Human Synovial PLA2; [4]): 1.7 µM

Q: How did the IC50 (Human Platelet PLA2; standard drugs, read-out: IC50 Human Platelet PLA2 (standard drugs)) turn out when `CCCCC/C=C\C/C=C\C/C=C\C/C=C\CCCC(=O)O` [Arachidonic Acid, reference compound] was run?
A: The IC50 was 8.6 µM.

Q: What about the IC50 (Human Synovial PLA2; standard drugs, read-out: IC50 Human Synovial PLA2 (standard drugs)) of the same molecule?
A: Its IC50 is 3.2 µM.

Q: Which results are given for `CCCCC/C=C\C/C=C\CCCCCCCCCC(=O)Nc1nc(CC(=O)O)cs1` [Example 10, 2[((Z,Z)-1-Oxo-11,14-eicosadienyl)amino]-4-thiazoleacetic acid]?
A: inhibition at 50 µM (Human Platelet PLA2): 82.7%; inhibition at 50 µM (Human Synovial PLA2): 86.3%

Q: With `c1ccc2nc(COc3cccc4ccccc34)ccc2c1` [WY-47288, reference compound] as the molecule, how does the “% Change Edema” value ([1]; 1 mg/ear) read?
A: Its value is -40%.

Q: What about the “% change paw edema (in words)” value [2] of the same molecule?
A: The value was “Inactive”.

Q: With `CCCC/C=C\CCCCCCCC(=O)Nc1nc(CC(=O)O)cs1` [Example 9, 2[((Z)-1-Oxo-9-tetradecenyl)amino]-4-thiazoleacetic acid, tromethamine salt] as the molecule, how does the “% Inhibition HP” value (Human Platelet PLA2) read?
A: The value was 74%.

Q: What about the “% Inhibition HSF” value (Human Synovial PLA2) of the same molecule?
A: Its value is 26.9%.

Q: Which results are given for `CCCCCCCCC#CCCCCCCCC(=O)Nc1nc(CC(=O)O)cs1` [Example 5, 2-[(1-Oxo-9-octadecynyl)amino]-4-thiazoleacetic acid, tromethamine salt]?
A: % Inhibition HP (Human Platelet PLA2): 26%; % Inhibition HSF (Human Synovial PLA2): 66%

Q: How did the “% Inhibition HP” value (Human Platelet PLA2) turn out when `CCCCCCCCC#CCCCCCCCC(=O)Nc1nc(CC(=O)O)cs1` [Example 4, 2-[(1-Oxo-9-octadecynyl)amino]-4-thiazoleacetic acid] was run?
A: The value was 8.9%.

Q: And the “% Inhibition HSF” value (Human Synovial PLA2)?
A: Its value is 42.5%.

Q: Which results are given for `CCCCC/C=C/C/C=C/CCCCCCCC(=O)Nc1nc(CC(=O)O)cs1` [Example 6]?
A: inhibition at 10 µM (Human Platelet PLA2): 74.6%; inhibition at 10 µM (Human Synovial PLA2): 84.8%

Q: How did the inhibition at 10 µM (Human Platelet PLA2) turn out when `CC/C=C\C/C=C\C/C=C\CCCCCCCC(=O)Nc1nc(CC(=O)O)cs1` [Example 7, 2-[((Z,Z,Z)-1-Oxo-9,12,15-octadecatrienyl)amino]-4-thiazole-acetic acid] was run?
A: Its inhibition at 10 µM is 0.5%.

Q: And the inhibition at 10 µM (Human Synovial PLA2)?
A: The inhibition at 10 µM was 38.5%.

Q: For `CCCCCCCC/C=C/CCCCCCCC(=O)Nc1nc(CC(=O)O)cs1` [Example 3, 2-[((E)-1-Oxo-9-octadecenyl)amino]-4-thiazoleacetic acid], which “% Change Edema” value ([1]; 100 mg/ear (so in the source)) is on record?
A: The value was -20%.

Q: And the “% change paw edema” value ([2]; 10 min after PLA2)?
A: The value was -33%.

Q: What about the “% change paw edema” value ([2]; 30 min after PLA2) of the same molecule?
A: Its value is -43%.

Q: And the inhibition at 50 µM (Human Platelet PLA2)?
A: The inhibition at 50 µM was 70%.

Q: And the IC50 (Human Platelet PLA2; [3])?
A: The IC50 was 25.7 µM.

Q: And the inhibition at 50 µM (Human Synovial PLA2)?
A: The inhibition at 50 µM was 81.7%.

Q: And the IC50 (Human Synovial PLA2; [4])?
A: Its IC50 is 2.1 µM.

Q: Which inhibition at 10 µM (Human Platelet PLA2) does the source give for `CCCC/C=C\CCCCCCCC(=O)Nc1nc(CC(=O)O)cs1` [Example 8, 2-[((Z)-1-Oxo-9-tetradecenyl)amino]-4-thiazoleacetic Acid] here?
A: The inhibition at 10 µM was 65.6%.

Q: And the “% Inhibition HSF” value (Human Synovial PLA2)?
A: Its value is 2%.

Q: `CC1=C(CC/C(C)=C/CC/C(C)=C/CCC2=CC(=O)OC2O)C(C)(C)CCC1` (centres unmarked) [Luffariellolide, reference compound] was tested. Which “% change paw edema (in words)” value [2] did it give?
A: The value was “Inactive”.
